Laboratory results from ChEMBL document CHEMBL6087464, “Design, Synthesis, and Biological Evaluation of 3,4-Dihydroisoquinolin-1(2H)-one Derivatives as Protein Arginine Methyltransferase 5 Inhibitors for the Treatment of Non-Hodgkin's Lymphoma” (J Med Chem, 2025).
Values belong to the compound of their own block, whether it stands above or below them.

Experiments:
[1] = target: PRMT5/MEP50 complex (Homo sapiens, UniProt O14744); test: Inhibition of recombinant N-terminal FLAG-tagged human full-length PRMT5/full length human MEP50 extracted from baculovirus expression system using [3H]-SAM as substrate preincubated for 15 mins followed by substrate addition and measured after 60 mins by multimode plate reader analysis
[2] = test system: Z-138; test: Antiproliferative activity against human Z138 cells measured after 7 days by CellTiter-Glo luminescence cell viability assay; type: functional, cell-based; details: Z-138, 168 h
[3] = AUC (0 to t) in Sprague-Dawley rat at 2 mg/kg, iv by LC-MS/MS analysis; type: ADME, organism-based; details: in vivo
[4] = Clearance in Sprague-Dawley rat at 2 mg/kg, iv by LC-MS/MS analysis; type: ADME, organism-based; details: in vivo
[5] = Half-life in Sprague-Dawley rat at 2 mg/kg, iv by LC-MS/MS analysis; type: ADME, organism-based; details: in vivo
[6] = target: Voltage-gated inwardly rectifying potassium channel KCNH2 (Homo sapiens, UniProt Q12809); test: Inhibition of human ERG; type: toxicity
[7] = Oral bioavailability in Sprague-Dawley rat at 10 mg/kg by LC-MS/MS analysis; type: ADME, organism-based; details: in vivo
[8] = Cmax in Sprague-Dawley rat at 2 mg/kg, iv by LC-MS/MS analysis; type: ADME, organism-based; details: in vivo
[9] = MRT (0 to t) in Sprague-Dawley rat at 10 mg/kg, po by LC-MS/MS analysis; type: ADME, organism-based; details: in vivo
[10] = Tmax in Sprague-Dawley rat at 10 mg/kg, po by LC-MS/MS analysis; type: ADME, organism-based; details: in vivo
[11] = MRT (0 to t) in Sprague-Dawley rat at 2 mg/kg, iv by LC-MS/MS analysis; type: ADME, organism-based; details: in vivo
[12] = Cmax in Sprague-Dawley rat at 10 mg/kg, po by LC-MS/MS analysis; type: ADME, organism-based; details: in vivo
[13] = Half-life in Sprague-Dawley rat at 10 mg/kg, po by LC-MS/MS analysis; type: ADME, organism-based; details: in vivo; for half-life: Sprague-Dawley
[14] = Volume of distribution in Sprague-Dawley rat at 2 mg/kg, iv by LC-MS/MS analysis; type: ADME, organism-based; details: in vivo
[15] = AUC (0 to t) in Sprague-Dawley rat at 10 mg/kg, po by LC-MS/MS analysis; type: ADME, organism-based; details: in vivo; for AUC(0-t): Sprague-Dawley
[16] = target: Protein arginine N-methyltransferase 6 (Homo sapiens, UniProt Q96LA8); test: Inhibition of PRMT6 (unknown origin)
[17] = target: T1, Protein arginine N-methyltransferase 7 (Homo sapiens, UniProt Q9NVM4); test: Inhibition of PRMT7 (unknown origin)
T1 sequence (Q9NVM4 whole entry): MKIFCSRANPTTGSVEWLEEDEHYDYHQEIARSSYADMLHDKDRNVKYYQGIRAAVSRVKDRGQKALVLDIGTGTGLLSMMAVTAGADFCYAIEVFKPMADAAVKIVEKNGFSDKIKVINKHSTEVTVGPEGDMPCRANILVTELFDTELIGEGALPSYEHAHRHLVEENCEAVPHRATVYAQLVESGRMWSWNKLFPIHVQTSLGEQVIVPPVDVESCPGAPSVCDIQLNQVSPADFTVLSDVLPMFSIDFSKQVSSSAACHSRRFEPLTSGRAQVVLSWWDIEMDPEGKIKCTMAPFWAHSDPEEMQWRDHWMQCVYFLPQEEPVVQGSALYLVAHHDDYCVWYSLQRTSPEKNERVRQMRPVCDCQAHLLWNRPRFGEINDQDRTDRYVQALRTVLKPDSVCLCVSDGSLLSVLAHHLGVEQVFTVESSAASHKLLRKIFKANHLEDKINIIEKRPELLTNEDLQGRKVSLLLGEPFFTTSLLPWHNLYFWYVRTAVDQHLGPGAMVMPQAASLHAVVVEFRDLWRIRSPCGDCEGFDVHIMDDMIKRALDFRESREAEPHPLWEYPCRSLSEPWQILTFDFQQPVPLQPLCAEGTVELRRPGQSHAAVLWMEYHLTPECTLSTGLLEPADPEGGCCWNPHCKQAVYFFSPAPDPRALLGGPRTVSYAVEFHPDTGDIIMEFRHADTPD

[18] = target: Protein arginine N-methyltransferase 3 (Homo sapiens, UniProt O60678); test: Inhibition of PRMT3 (unknown origin)
[19] = target: T2, Histone-arginine methyltransferase CARM1 (Homo sapiens, UniProt Q86X55); test: Inhibition of PRMT4 (unknown origin)
T2 sequence (Q86X55 whole entry): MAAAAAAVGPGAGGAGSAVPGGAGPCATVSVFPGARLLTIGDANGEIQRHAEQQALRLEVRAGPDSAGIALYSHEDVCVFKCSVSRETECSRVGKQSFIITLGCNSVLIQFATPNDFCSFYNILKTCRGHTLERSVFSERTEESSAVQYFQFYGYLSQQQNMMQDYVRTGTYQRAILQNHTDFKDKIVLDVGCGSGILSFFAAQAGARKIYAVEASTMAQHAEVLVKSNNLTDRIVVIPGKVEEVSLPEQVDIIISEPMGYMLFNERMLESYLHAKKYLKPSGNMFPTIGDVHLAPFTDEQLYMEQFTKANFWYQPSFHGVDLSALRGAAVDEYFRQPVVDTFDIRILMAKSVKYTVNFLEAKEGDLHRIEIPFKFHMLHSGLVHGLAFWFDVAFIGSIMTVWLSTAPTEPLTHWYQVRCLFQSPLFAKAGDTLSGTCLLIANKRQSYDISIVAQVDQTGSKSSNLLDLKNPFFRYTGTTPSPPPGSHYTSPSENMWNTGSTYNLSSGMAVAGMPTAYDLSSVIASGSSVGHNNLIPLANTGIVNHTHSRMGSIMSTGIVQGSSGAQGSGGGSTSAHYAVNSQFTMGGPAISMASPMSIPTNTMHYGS

[20] = target: Protein arginine N-methyltransferase 8 (Homo sapiens, UniProt Q9NR22); test: Inhibition of PRMT8 (unknown origin)
Sequence of Protein arginine N-methyltransferase 8 (Q9NR22 whole entry): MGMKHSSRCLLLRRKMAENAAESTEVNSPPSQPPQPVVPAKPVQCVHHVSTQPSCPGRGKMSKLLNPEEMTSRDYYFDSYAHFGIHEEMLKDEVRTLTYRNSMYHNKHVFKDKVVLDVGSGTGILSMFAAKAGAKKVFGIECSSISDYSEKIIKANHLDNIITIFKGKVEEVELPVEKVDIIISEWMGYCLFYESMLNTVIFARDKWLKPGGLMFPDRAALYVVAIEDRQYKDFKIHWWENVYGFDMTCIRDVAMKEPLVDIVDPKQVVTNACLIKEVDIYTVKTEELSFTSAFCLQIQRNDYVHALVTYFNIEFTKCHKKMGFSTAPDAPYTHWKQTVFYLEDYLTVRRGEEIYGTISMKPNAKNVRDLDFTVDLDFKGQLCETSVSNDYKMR

Sequence of PRMT5/MEP50 complex (O14744 whole entry): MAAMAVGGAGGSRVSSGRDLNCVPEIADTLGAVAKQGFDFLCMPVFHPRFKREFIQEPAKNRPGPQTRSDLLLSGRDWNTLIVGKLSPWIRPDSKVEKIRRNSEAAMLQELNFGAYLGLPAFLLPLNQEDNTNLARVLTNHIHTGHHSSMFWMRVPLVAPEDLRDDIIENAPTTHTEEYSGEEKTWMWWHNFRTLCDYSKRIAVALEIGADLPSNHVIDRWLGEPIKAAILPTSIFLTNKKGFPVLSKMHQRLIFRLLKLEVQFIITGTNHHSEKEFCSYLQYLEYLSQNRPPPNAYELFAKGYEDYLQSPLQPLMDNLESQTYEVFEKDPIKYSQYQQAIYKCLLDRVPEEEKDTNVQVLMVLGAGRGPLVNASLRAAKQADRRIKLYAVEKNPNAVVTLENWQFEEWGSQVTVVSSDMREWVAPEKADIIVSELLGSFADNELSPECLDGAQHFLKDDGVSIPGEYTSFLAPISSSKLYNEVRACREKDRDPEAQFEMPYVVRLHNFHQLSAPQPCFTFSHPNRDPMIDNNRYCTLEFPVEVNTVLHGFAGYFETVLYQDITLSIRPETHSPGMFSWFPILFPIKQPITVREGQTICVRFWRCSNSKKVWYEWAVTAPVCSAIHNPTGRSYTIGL
Sequence of PRMT5/MEP50 complex (Q9BQA1 whole entry, further chain): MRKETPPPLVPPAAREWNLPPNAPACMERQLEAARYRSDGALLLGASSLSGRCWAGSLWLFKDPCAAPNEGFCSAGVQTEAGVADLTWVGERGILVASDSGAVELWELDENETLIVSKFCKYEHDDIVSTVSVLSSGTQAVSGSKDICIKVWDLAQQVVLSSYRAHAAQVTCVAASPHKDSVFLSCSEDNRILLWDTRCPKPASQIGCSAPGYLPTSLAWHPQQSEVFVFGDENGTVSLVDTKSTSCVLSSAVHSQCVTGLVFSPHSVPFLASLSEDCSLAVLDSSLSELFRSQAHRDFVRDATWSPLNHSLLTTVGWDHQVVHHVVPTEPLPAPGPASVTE
Sequence of Voltage-gated inwardly rectifying potassium channel KCNH2 (Q12809 whole entry): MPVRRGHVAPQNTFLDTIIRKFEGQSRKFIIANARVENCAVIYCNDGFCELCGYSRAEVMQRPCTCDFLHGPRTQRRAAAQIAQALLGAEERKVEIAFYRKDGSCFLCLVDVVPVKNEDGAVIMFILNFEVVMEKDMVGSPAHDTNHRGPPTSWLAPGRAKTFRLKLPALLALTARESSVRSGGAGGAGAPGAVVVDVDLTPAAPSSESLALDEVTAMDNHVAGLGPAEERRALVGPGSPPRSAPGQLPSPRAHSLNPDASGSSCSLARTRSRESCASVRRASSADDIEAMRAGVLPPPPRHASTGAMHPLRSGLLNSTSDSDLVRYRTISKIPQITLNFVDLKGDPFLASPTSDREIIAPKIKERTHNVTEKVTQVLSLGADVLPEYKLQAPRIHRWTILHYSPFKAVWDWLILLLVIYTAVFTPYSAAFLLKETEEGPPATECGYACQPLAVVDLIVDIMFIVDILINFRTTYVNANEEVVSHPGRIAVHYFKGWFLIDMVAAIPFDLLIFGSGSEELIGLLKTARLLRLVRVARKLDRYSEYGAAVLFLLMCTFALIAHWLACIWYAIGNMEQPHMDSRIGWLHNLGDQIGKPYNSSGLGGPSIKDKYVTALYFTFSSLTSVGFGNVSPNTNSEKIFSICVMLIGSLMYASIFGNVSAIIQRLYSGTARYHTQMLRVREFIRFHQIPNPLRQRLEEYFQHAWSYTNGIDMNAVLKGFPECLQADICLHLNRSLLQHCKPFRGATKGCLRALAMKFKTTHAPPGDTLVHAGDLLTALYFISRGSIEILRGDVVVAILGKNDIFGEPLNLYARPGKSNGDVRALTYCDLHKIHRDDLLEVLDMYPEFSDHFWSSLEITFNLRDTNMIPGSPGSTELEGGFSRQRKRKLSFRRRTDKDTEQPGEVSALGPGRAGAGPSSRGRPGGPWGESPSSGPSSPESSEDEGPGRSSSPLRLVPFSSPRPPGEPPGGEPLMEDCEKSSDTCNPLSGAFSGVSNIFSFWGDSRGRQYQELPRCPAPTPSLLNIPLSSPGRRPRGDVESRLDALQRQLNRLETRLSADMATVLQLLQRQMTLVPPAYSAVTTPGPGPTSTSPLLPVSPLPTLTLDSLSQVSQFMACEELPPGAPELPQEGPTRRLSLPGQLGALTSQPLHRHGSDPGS
Sequence of Protein arginine N-methyltransferase 6 (Q96LA8 whole entry): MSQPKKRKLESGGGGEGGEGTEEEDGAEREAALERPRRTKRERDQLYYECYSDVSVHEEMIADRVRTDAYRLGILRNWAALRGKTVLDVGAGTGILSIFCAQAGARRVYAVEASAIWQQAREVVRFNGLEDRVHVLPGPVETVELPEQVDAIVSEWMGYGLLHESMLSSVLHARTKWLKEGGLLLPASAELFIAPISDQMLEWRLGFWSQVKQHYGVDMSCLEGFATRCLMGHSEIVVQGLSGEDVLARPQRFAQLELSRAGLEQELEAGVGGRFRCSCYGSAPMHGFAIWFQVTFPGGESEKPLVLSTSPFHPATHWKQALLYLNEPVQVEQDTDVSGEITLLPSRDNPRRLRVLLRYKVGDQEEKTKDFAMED
Sequence of Protein arginine N-methyltransferase 3 (O60678 whole entry): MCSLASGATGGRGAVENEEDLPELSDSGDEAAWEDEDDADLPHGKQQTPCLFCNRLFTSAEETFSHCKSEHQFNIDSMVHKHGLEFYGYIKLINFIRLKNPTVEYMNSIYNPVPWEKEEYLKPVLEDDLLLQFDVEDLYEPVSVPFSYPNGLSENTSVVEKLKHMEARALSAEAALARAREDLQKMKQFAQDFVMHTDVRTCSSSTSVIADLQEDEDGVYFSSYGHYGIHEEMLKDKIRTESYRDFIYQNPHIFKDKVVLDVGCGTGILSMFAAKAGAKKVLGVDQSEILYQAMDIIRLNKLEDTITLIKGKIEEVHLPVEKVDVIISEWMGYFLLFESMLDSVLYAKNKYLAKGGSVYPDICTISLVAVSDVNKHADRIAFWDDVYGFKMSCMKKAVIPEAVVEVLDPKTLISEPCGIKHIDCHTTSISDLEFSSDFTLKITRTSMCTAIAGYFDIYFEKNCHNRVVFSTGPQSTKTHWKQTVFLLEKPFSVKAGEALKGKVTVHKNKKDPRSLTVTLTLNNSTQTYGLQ

SMILES: CC(=O)N1CCC(Nc2ccc3c(c2)N(C[C@H](O)CN2CCc4ccccc4C2)C(=O)C3)CC1
IC50 [1]: > 10000 nM

SMILES: O=C(Nc1ccc2c(c1)C(=O)N(C[C@H](O)CN1CCc3ccccc3C1)CC21CC1)c1ccccc1
IC50 [1]: 10.6 nM
IC50 [2]: 400 nM

SMILES: Cn1cc(C(=O)Nc2ccc3c(c2)C(=O)N(C[C@H](O)CN2CCc4ccccc4C2)CC32CC2)cn1
IC50 [1]: 9.89 nM
IC50 [2]: 292 nM

SMILES: CC(=O)N1CCC(C(=O)N2CCC3(CC2)C(=O)N(C[C@H](O)CN2CCc4ccccc4C2)c2ccccc23)CC1
IC50 [1]: 3060 nM

SMILES: O=C(Nc1ccc2c(c1)C(=O)N(C[C@H](O)CN1CCc3ccccc3C1)CC21CC1)C1CCOCC1
IC50 [1]: 16.7 nM
IC50 [2]: 282 nM

SMILES: CC(=O)N1CCC(C(=O)N2CCC3(CC2)CCN(C[C@H](O)CN2CCc4ccccc4C2)C3=O)CC1
IC50 [1]: > 10000 nM

SMILES: Cn1cc(C(=O)Nc2ccc3c(c2)C(=O)N(C[C@H](O)CN2CCc4ccccc4C2)CC32CCC2)cn1
IC50 [1]: 16.1 nM
IC50 [2]: 318 nM

SMILES: CC(=O)N1CCC(Nc2ccc3c(c2)CC(=O)N3C[C@H](O)CN2CCc3ccccc3C2)CC1
IC50 [1]: > 10000 nM

SMILES: O=C1c2cc(NS(=O)(=O)c3ccccc3)ccc2C2(CC2)CN1C[C@H](O)CN1CCc2ccccc2C1
IC50 [1]: 249 nM

SMILES: C[S+](CC[C@H](N)C(=O)[O-])C[C@H]1O[C@@H](n2cnc3c(N)ncnc32)[C@H](O)[C@@H]1O (some centres undefined) [ADEMETIONINE]
IC50 [16]: 1260 nM
IC50 [17]: 491 nM
IC50 [18]: 5170 nM
IC50 [19]: 42 nM
IC50 [1]: 793 nM
IC50 [20]: 759 nM

Second part, led by results:

IC50 [1]: 116 nM
SMILES: CC(=O)N1CCC(Nc2ccc3c(c2)C(=O)N(C[C@H](O)CN2CCc4ccccc4C2)CC32CCOC2)CC1 (some centres undefined)

AUC(0-t) [3]: 1370 ng·h/mL
clearance [4]: 25 mL/min/kg
half-life [5]: 48 min
bioavailability [7]: 23.4%
Cmax [8]: 1770 ng/mL
MRT last [9]: 132 min
Tmax ([10]; Sprague-Dawley, read-out: Tmax): 18 min
MRT last [11]: 48 min
IC50 [1]: 26.4 nM
Cmax ([12]; Sprague-Dawley, read-out: Cmax): 840 ng/mL
half-life [13]: 210 min
Vd [14]: 1.6 L/kg
AUC(0-t) [15]: 1600 ng·h/mL
SMILES: CC(=O)N1CCC(Nc2ccc3c(c2)C(=O)N(C[C@H](O)CN2CCc4ccccc4C2)CC32CCC2)CC1
IC50 [6]: 460 nM
IC50 [2]: 3.89 nM

AUC(0-t) [3]: 656 ng·h/mL
clearance [4]: 25 mL/min/kg
half-life [5]: 78 min
bioavailability [7]: 24.2%
Cmax [8]: 943 ng/mL
MRT last [9]: 6 min
Tmax ([10]; po, 10 mg/kg): 6 min
MRT last [11]: 60 min
IC50 [1]: 22.6 nM
Cmax ([12]; po, 10 mg/kg): 149.5 ng/mL
t1/2 ([13]; po, 10 mg/kg): 18 min
Vd [14]: 2.8 L/kg
AUCt ([15]; po, 10 mg/kg): 794.2 ng·h/mL
SMILES: CC(=O)N1CCC(Nc2ccc3c(c2)C(=O)N(C[C@H](O)CN2CCc4ccccc4C2)CC32CCCC2)CC1
IC50 [6]: 350 nM
IC50 [2]: 10.3 nM

AUC(0-t) [3]: 435 ng·h/mL
clearance [4]: 38.3 mL/min/kg
half-life [5]: 24 min
bioavailability [7]: 16.4%
Cmax [8]: 678 ng/mL
MRT last [9]: 12 min
Tmax ([10]; Sprague-Dawley, read-out: Tmax): 24 min
MRT last [11]: 54 min
Cmax ([12]; Sprague-Dawley, read-out: Cmax): 145 ng/mL
half-life [13]: 24 min
Vd [14]: 3 L/kg
AUC(0-t) [15]: 356 ng·h/mL
SMILES: CC(=O)N1CCC(Nc2cc3c(cn2)C2(CC2)CN(C[C@H](O)CN2CCc4ccccc4C2)C3=O)CC1
IC50 [2]: 3.07 nM

IC50 [1]: 45.5 nM
SMILES: O=C1c2cc(NC3CCN(C(=O)C4CC4)CC3)ccc2C2(CCCC2)CN1C[C@H](O)CN1CCc2ccccc2C1
IC50 [2]: 20.5 nM

IC50 [1]: 9.01 nM
SMILES: O=C1c2cc(NC3CCNCC3)ccc2C2(CC2)CN1C[C@H](O)CN1CCc2ccccc2C1
IC50 [2]: 588 nM

IC50 [1]: 3.95 nM
SMILES: CC(=O)N1CCC(C(=O)Nc2ccc3c(c2)C(=O)N(C[C@H](O)CN2CCc4ccccc4C2)CC32CCC2)CC1
IC50 [2]: 91.8 nM

IC50 [1]: 37.5 nM
SMILES: CC(=O)N1CCC(Nc2ccc3c(c2)C(=O)N(C[C@H](O)CN2CCc4ccccc4C2)CC3)CC1
IC50 [2]: 14.3 nM

AUC(0-t) [3]: 464 ng·h/mL
clearance [4]: 71.7 mL/min/kg
half-life [5]: 24 min
bioavailability [7]: 63.1%
Cmax [8]: 1560 ng/mL
MRT last [9]: 60 min
Tmax ([10]; Sprague-Dawley, read-out: Tmax): 18 min
MRT last [11]: 18 min
IC50 [1]: 18.3 nM
Cmax ([12]; Sprague-Dawley, read-out: Cmax): 1150 ng/mL
half-life [13]: 54 min
Vd [14]: 2.6 L/kg
AUC(0-t) [15]: 1460 ng·h/mL
SMILES: CC(=O)N1CCC(Nc2ccc3c(c2)C(=O)N(C[C@H](O)CN2CCc4ccccc4C2)CC32CC2)CC1
IC50 [2]: 4.33 nM

IC50 [1]: 86.9 nM
SMILES: CC(=O)N1CCC(Nc2ccc3c(n2)C(=O)N(C[C@H](O)CN2CCc4ccccc4C2)CC32CC2)CC1
IC50 [2]: 279 nM

IC50 [1]: 8.61 nM
SMILES: CC(=O)N1CCC(C(=O)Nc2ccc3c(c2)C(=O)N(C[C@H](O)CN2CCc4ccccc4C2)CC32CC2)CC1
IC50 [2]: 103 nM
